# Activity calls are given as the source filed them.
# Columns and labels:
# [1] = cells; type: functional, cell-based
# [2] = molecular target: T1, Nuclear receptor subfamily 0 group B member 1 (Homo sapiens, UniProt P51843); type: functional, cell-based;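 also: HEK293T cells transfected with SF-1 and DAX-1 plus StAR promoter luciferase reporter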
# T1 sequence (P51843 whole entry): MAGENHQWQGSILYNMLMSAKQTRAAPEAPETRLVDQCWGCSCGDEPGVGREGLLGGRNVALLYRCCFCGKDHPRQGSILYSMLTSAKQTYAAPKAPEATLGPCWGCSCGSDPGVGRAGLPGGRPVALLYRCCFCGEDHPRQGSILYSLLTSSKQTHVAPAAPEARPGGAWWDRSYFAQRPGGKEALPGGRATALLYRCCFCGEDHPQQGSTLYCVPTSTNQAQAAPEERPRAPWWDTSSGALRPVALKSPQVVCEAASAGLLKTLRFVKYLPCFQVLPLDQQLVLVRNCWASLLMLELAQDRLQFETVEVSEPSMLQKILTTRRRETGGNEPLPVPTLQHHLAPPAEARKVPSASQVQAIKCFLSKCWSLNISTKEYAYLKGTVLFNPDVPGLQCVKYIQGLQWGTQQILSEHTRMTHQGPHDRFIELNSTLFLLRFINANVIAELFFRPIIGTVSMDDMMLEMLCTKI
# [3] = tested on: H4; assay: Luminescence Cell-Based Dose Response HTS to Identify Activators of 5'UTR Stem-Loop Driven Prion Protein mRNA Translation in H4 Neuroglioblastoma Cells. [Related pubchem assays: 1829 (Project Summary), 1814 (Primary HTS)]; type: functional; conditions: Homo sapiens
# [4] = molecular target: T2, Orexin receptor type 2 (Homo sapiens, UniProt O43614); assay: Counterscreen assay for antagonists of the orexin 1 receptor (OX1R; HCRTR1): Homogeneous Time Resolved Fluorescence (HTRF)-based cell-based dose response assay for antagonists of the orexin 2 receptor (OX2R; HCRTR2), run by assay provider.; type: functional
# T2 sequence (O43614 whole entry): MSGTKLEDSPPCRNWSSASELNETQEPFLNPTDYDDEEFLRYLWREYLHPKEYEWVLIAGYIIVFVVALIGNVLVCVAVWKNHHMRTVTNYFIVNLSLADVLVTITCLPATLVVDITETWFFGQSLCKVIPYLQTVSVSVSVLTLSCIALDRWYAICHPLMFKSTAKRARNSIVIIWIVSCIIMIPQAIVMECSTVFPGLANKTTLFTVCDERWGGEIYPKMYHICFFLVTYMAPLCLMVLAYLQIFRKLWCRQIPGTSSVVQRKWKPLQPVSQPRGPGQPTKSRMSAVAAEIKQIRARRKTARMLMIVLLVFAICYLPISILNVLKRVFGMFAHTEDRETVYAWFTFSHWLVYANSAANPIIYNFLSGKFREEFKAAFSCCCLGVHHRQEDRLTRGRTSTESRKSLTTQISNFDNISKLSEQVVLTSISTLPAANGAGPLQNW
# [5] = molecular target: T3, Orexin/Hypocretin receptor type 1 (Homo sapiens, UniProt O43613); assay: Homogeneous Time Resolved Fluorescence (HTRF)-based cell-based high throughput dose response assay for antagonists of the orexin 1 receptor (OX1R; HCRTR1). [Related pubchem assays (depositor defined):AID434989, AID435008, AID463079, AID485270, AID492963, AID492964, AID492965, AID493232, AID504717, AID504718]; type: functional
# T3 sequence (O43613 whole entry): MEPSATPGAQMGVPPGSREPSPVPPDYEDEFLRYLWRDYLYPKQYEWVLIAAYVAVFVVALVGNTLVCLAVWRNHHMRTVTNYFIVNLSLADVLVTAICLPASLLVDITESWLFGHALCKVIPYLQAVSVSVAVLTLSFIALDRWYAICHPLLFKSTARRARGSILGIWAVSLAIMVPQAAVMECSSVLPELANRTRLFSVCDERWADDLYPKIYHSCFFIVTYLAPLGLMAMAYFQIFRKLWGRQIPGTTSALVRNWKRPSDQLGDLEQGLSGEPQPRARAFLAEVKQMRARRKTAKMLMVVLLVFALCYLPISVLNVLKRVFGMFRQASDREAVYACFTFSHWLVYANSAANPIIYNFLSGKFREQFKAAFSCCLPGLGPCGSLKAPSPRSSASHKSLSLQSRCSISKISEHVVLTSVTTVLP
# [6] = tested on: CHO-K1; assay: (§1) Counterscreen for antagonists of the orexin 1 receptor (OX1R; HCRTR1): Homogeneous time resolved fluorescence (HTRF)-based cell-based dose response assay to identify antagonists of the parental CHO-K1 cell line. [Related pubchem assays (depositor defined):AID434989, AID435008, AID463079, AID485270, AID492963, AID492964, AID492965, AID493232, AID504699, AID504701]; type: functional; conditions: Cricetulus griseus
# [7] = as §1, with “Fluorescence-based” for “Homogeneous time resolved fluorescence (HTRF)-based”, “cell-based high throughput” for “cell-based”, “CHO” for “CHO-K1”; type: functional
# [8] = molecular target: T3, Orexin/Hypocretin receptor type 1; assay: Fluorescence-based cell-based high throughput dose response assay for antagonists of the orexin 1 receptor (OX1R; HCRTR1). [Related pubchem assays (depositor defined):AID434989, AID435008, AID463079, AID485270, AID492963, AID492964, AID492965, AID493232, AID504717, AID504718]; type: functional
# [9] = molecular target: T2, Orexin receptor type 2; assay: Counterscreen assay for antagonists of the orexin 1 receptor (OX1R; HCRTR1): Fluorescence-based cell-based dose response assay for antagonists of the orexin 2 receptor (OX2R; HCRTR2), run by assay provider.; type: functional
# [10] = cells; type: functional
# [11] = molecular target: T4, DNA repair protein RAD52 homolog (Homo sapiens, UniProt P43351); type: functional, biochemical
# T4 sequence (P43351 whole entry): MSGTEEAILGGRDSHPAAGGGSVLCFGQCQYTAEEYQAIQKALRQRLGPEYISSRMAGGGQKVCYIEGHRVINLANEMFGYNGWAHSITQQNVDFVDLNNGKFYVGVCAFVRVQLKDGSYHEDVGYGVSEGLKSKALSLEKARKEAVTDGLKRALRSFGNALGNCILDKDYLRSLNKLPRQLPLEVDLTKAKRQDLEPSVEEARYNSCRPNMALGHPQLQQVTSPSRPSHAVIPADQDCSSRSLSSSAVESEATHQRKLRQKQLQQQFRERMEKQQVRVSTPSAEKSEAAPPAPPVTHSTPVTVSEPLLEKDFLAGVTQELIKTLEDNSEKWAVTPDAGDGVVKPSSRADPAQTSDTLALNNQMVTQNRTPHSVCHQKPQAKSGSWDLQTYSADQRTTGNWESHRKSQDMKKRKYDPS
# [12] = molecular target: T5, fMet-Leu-Phe receptor (Homo sapiens, UniProt P21462); assay: formyl peptide receptor binders – dose response (AID 519); type: functional
# T5 sequence (P21462 whole entry): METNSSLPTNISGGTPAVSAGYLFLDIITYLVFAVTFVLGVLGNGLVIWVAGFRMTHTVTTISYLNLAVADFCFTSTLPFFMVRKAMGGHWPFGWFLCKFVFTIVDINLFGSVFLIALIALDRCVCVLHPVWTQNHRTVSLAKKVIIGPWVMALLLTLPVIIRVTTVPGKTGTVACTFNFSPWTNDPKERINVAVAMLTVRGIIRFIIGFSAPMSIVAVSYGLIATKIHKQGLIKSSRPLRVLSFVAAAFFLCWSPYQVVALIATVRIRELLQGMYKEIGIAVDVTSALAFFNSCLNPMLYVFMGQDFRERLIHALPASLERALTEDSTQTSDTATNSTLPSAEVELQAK
# [13] = molecular target: Cytochrome P450 3A4 (Homo sapiens, UniProt P08684);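 also: CYP3A4 tested as one member of a cytochrome P450 panel screen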
# Cytochrome P450 3A4, sequence (P08684 whole entry): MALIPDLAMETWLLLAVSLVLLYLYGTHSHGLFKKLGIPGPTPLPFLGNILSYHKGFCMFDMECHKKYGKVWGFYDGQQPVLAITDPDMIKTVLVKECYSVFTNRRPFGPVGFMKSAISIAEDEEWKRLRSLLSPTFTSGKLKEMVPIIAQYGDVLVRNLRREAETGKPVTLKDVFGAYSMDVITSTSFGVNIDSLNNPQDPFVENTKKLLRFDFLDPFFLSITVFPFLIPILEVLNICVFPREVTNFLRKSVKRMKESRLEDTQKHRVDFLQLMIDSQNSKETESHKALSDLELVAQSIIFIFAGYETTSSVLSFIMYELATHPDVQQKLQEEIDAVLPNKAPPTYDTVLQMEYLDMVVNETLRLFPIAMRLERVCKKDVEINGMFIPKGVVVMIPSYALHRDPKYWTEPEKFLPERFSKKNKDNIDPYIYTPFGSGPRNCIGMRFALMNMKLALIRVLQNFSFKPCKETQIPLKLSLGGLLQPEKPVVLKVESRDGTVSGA
# [14] = non-specific 3'UTR reporter inhibition in Clone20-Shn3RL – cell-based, Renilla luciferase, cherry-picked, counter-screen for Shn3 inhibitor project, dose response (AID 624133); type: functional
# [15] = loss of viability in HepG2 cells – cell-based, CellTiter-Glo, cherry-picked, cytotoxicity control for Shn3 inhibitor project, dose response (AID 624134); type: functional
# [16] = Luminescence Cell-Based Dose Retest to Confirm Inhibitors of Cancer Stem Cells. [Related pubchem assays (depositor defined):AID2717, AID2721]; type: functional; conditions: Homo sapiens
# [17] = reduction of Shn3 3'UTR-driven luciferase in osteoblasts – cell-based, Clone20 osteoblasts, firefly luciferase, cherry-picked, dose response (AID 624132); type: functional;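 also: firefly luciferase luminescence from reporter carrying the Shn3 3'UTR in osteoblasts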
# [18] = Fluorescence-based cell-based high throughput dose response assay for inhibitors of the interaction of nucleotide-binding oligomerization domain containing 2 (NOD2) and the receptor-interacting serine-threonine kinase 2 (RIPK2).; type: functional; conditions: Homo sapiens
# [19] = molecular target: Paired box protein Pax-8 (Homo sapiens, UniProt Q06710); assay: PAX8 transcriptional activity inhibition in RMG-I – RMG-I cells, luciferase, cherry-pick, dose response (AID 687027); type: functional, cell-based;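 also: luciferase reporter driven by Pax8 target thyroperoxidase promoter measured by SteadyGlo luminescence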
# Paired box protein Pax-8, sequence (Q06710 whole entry): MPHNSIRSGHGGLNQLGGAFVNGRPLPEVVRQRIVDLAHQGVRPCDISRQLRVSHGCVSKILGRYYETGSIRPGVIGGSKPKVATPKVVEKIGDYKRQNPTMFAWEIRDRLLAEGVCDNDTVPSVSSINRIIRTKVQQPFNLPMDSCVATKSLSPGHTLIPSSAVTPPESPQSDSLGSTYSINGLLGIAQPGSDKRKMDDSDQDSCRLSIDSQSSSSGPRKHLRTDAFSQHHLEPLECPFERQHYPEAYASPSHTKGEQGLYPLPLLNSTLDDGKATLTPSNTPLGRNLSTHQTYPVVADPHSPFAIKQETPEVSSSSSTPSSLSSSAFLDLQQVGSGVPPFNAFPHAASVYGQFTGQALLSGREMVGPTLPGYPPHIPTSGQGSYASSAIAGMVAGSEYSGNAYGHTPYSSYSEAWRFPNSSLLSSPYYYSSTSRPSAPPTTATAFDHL
# [20] = OVCAR8 cell viability loss – plate reader, dry powder samples, PAX8 project, dose response (AID 743197); type: functional, cell-based; conditions: OVCAR-8
# [21] = OVCAR-3 cell viability loss – plate reader, dry powder samples, PAX8 inhibitor project, dose response (AID 743044); type: functional, cell-based
smiles,measurement,setting,value
CNc1nnc(SCC(=O)c2cc(C)n(C3CC3)c2C)s1,IC50,[1],> 67.5 µM (inactive)
same,IC50,[2],> 67.5 µM (inactive)
Nc1nc(-c2sc3nc4c(cc3c2N)CCCC4)nc(N2CCOCC2)n1,EC50,[3],> 120 µM (not active)
same,IC50,[4],> 50 µM (inactive)
same,IC50,[5],0.797 µM (active)
same,IC50,[6],> 66.2 µM (inactive)
same,IC50,[7],> 49.8 µM (inactive)
same,IC50,[8],5.52 µM (active)
same,IC50,[9],> 88.8 µM (inactive)
Cc1cc(C(=O)NCc2cccc(Cl)c2)c2ccccc2n1,IC50,[4],7.59 µM (active)
same,IC50,[5],0.976 µM (active)
same,IC50,[6],> 66.2 µM (inactive)
same,IC50,[7],> 49.7 µM (inactive)
same,IC50,[8],12.6 µM (inactive)
same,IC50,[9],> 88.8 µM (inactive)
COc1ccccc1C(=O)Nc1nc2cc3c(cc2s1)OCCO3,IC50,[4],> 50 µM (inactive)
same,IC50,[5],1.95 µM (active)
same,IC50,[6],> 66.2 µM (inactive)
same,IC50,[7],> 49.8 µM (inactive)
same,IC50,[8],6.51 µM (active)
same,IC50,[9],> 88.8 µM (inactive)
CCOC(=O)c1c(C)nc2c3ccccc3ccn12,IC50,[4],30 µM (inactive)
same,IC50,[5],3.62 µM (active)
same,IC50,[6],> 66.3 µM (inactive)
same,IC50,[7],> 49.8 µM (inactive)
same,IC50,[10],37.3 µM (active)
same,IC50,[8],32.9 µM (inactive)
same,IC50,[9],> 88.8 µM (inactive)
CCOC(=O)c1c(C)n(-c2ccc(C)cc2)c2ccc(OCC(O)CN3CCN(C)CC3)cc12 (configuration not stated),AC50,[11],6.54 µM (active)
COc1ccc(C2C(C(=O)c3ccco3)=C(O)C(=O)N2Cc2cccnc2)cc1OC (configuration not stated),Ki,[12],> 66.7 µM (inactive)
CN(CCC#N)c1ccc(/C=C(\C#N)c2ccccn2)cc1,IC50,[1],> 67.5 µM (inactive)
same,IC50,[2],> 0.834 µM (active)
CCOc1cc(C2C(C(=O)c3ccc(C)o3)=C(O)C(=O)N2CCc2ccccc2)ccc1O (configuration not stated),Ki,[12],30.4 µM (inactive)
Cc1nc2c(C#N)c(C)nn2c(O)c1Cc1ccccc1,AC50,[13],25.1 µM (inconclusive)
same,Ki,[12],50 µM (inactive)
O=[N+]([O-])/C=C/c1cn(Cc2ccc(Cl)cc2)c2ccccc12,AC50,[14],21.2 µM (active)
same,AC50,[15],5.81 µM (active)
same,AC50,[16],1.88 µM (active)
same,AC50,[17],8.32 µM (active)
same,IC50,[18],6.98 µM (active)
CCC1(O)CC2CN(CCc3c([nH]c4ccccc34)C(C(=O)OC)(c3cc4c(cc3OC)N(C=O)C3C(O)(C(=O)OC)C(OC(C)=O)C5(CC)C=CCN6CCC43C65)C2)C1 (configuration not stated),IC50,[1],> 67.5 µM (inactive)
same,IC50,[2],0.386 µM (active)
N#Cc1cccc(-c2ccc3c(c2)[C@@H]2[C@@H](CCN2C(=O)C2CCCCC2)[C@@H](CO)N3)c1,AC50,[19],17.8 µM (active)
same,AC50,[20],61.9 µM (active)
C[C@@H]1CCCCO[C@H](CN(C)Cc2ccc(Cl)c(Cl)c2)[C@H](C)CN([C@@H](C)CO)C(=O)c2cc(NC(=O)Nc3ccc(C(F)(F)F)cc3)ccc2O1,AC50,[19],5.49 µM (active)
same,AC50,[21],20.1 µM (active)
same,AC50,[20],51.1 µM (active)

# — ChEMBL document CHEMBL1201862, “PubChem BioAssay data set” (2004)
